# Measurements from patent publication US20100204136A1, “USE OF A PEPTIDE AS A THERAPEUTIC AGENT” (priority 2007, published 2010).
# Tests used:
# HIV-1IIIB = assay: HIV-1 antiviral assay (CPE reduction, MTS); type: cell-based; conditions: peptide 10 micrograms per ml; 6 days post-infection
# CEM-SS cells = assay: Cytotoxicity in HIV-1 assay (MTS cell viability); conditions: peptide 10 micrograms per ml
# HepG2-2.2.15 cells = assay: Cytotoxicity in HBV assay (dye uptake cell viability); type: cell-based; conditions: test peptide 10 micrograms per ml
# MRC-5 cells = conditions: human, 6 days
# Protocol: For cytotoxicity testing, MRC-5 cells were seeded at 2,500 cells/well in 96 well plates using growth medium. […] The following day, peptide was added and tested in duplicates. After a 6 days incubation period, cell viability was measured using CellTiter 96 Solution (Promega). Plates were incubated for additional 4 hours at 37° C. Adhesive plate sealers were used in place of lids, the sealed plates were inverted several times to mix the soluble formazan product and the plate was read spectrophotometrically at 490/560 nm with a Molecular Devices Vmax plate reader.
smiles,measurement,setting,value
Cc1cn([C@H]2C[C@H](N=[N+]=[N-])[C@@H](CO)O2)c(=O)[nH]c1=O [AZT],% CPE reduction in HIV-1 infected CEM-SS cells,HIV-1IIIB,99%
same,% Cell viability,CEM-SS cells,97%
Nc1ccn([C@@H]2CS[C@H](CO)O2)c(=O)n1 [Compound 3TC],% Cell viability,HepG2-2.2.15 cells,95.8%
Nc1nc(O)c2ncn(COC(CO)CO)c2n1 [Ganciclovir],% Cell viability,MRC-5 cells,100%
